Reference: the supplement of paper PMC10331698
± gives the standard deviation of the averaged measurements.

Tests used:
Assay in all cases: level (log10 ratio to DMSO vehicle control); higher = higher biomarker level / cell amount than vehicle control
Details in all cases: in DMSO
[1] = compound: C=CC(=O)OCC(F)(F)C(F)(F)C(F)(F)C(F)(F)C(F)(F)C(F)(F)C(F)(F)F [1H,1H-Perfluorooctyl acrylate]
Procedure: (§1)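 BioMAP Diversity Plus panel of 12 human primary cell co-culture systems (3C, 4H, LPS, SAg, BT, BF4T, BE3C, CASM3C, HDF3CGF, KF3CT, MyoF, Mphg). Compounds were added 1 h before stimulation and left for 24 h (MyoF 48 h; BT 72 h for soluble read-outs or 6 d for IgG). Biomarkers were read by ELISA, cytotoxicity by SRB, PBMC viability and proliferation by Alamar Blue. Each well value was divided by the mean of 8 DMSO control wells on the same plate and log10 transformed; duplicate blinded samples were tested at 4 concentrations.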

[2] = compound: C=C(C)C(=O)OCCC(F)(F)C(F)(F)C(F)(F)C(F)(F)C(F)(C(F)(F)F)C(F)(F)F [(Perfluoro-5-methylhexyl)ethyl 2-methylprop-2-enoate]
Procedure: as §1

[3] = compound: O=C(O)C(F)(F)C(F)(F)C(F)(F)C(F)(F)C(F)(F)C(F)(F)C(F)(F)C(F)F [9-H-Perfluorononanoic acid]
Procedure: as §1

[4] = compound: O=C(O)C(F)(F)OC(F)(F)C(F)(F)OC(F)(F)C(=O)O [Perfluoro-3,6-dioxaoctane-1,8-dioic acid]
Procedure: as §1

[5] = compound: O=S(=O)(O)C(F)(F)C(F)(F)C(F)(F)C(F)(F)C(F)(F)C(F)(F)F [Perfluorohexanesulfonic acid]
Procedure: as §1

[6] = compound: C=CC(F)(F)C(F)(F)C(F)(F)C(F)(F)C(F)(F)C(F)(F)C(F)(F)C(F)(F)C=C [1,8-Divinylperfluorooctane]
Procedure: as §1

[7] = compound: NC(=O)C(F)(F)C(F)(F)F [Pentafluoropropionamide]
Procedure: as §1

Test System | level (log10) ([1]; 6700 nM) | level (log10) ([1]; 20000 nM) | level (log10) ([1]; 60000 nM) | level (log10) ([2]; 6700 nM) | level (log10) ([2]; 20000 nM) | level (log10) ([3]; 6700 nM) | level (log10) ([3]; 20000 nM) | level (log10) ([3]; 60000 nM) | level (log10) ([4]; 6700 nM) | level (log10) ([4]; 20000 nM) | level (log10) ([4]; 60000 nM) | level (log10) ([5]; 6700 nM) | level (log10) ([5]; 20000 nM) | level (log10) ([5]; 60000 nM) | level (log10) ([6]; 6700 nM) | level (log10) ([6]; 20000 nM) | level (log10) ([7]; 6700 nM) | level (log10) ([7]; 20000 nM) | level (log10) ([7]; 60000 nM)
CASM3C:M-CSF | -0.0205 ± 0.032 | 0.0135 ± 0.00071 | -0.0075 ± 0.0021 | -0.009 ± 0.0085 | 0.0195 ± 0.036 | -0.007 ± 0.0014 | -0.012 ± 0.0028 | 0.0205 ± 0.028 | 0.0205 ± 0.016 | -0.0025 ± 0.0035 | 0.0385 ± 0.011 | -0.007 ± 0.028 | -0.012 ± 0.014 | 0.0305 ± 0.00071 | -0.0375 ± 0.011 | -0.0235 ± 0.023 | -0.021 ± 0.038 | -0.0125 ± 0.00071 | 0.0205 ± 0.035
lMphg:CD69 | -0.0255 ± 0.012 | -0.016 ± 0.033 | -0.0135 ± 0.013 | -0.064 ± 0.082 | -0.0825 ± 0.08 | -0.0445 ± 0.088 | -0.038 ± 0.054 | -0.072 ± 0.0099 | -0.0565 ± 0.015 | 0 ± 0.054 | -0.024 ± 0.098 | -0.007 ± 0.027 | 0.007 ± 0.04 | -0.036 ± 0.018 | -0.013 ± 0.0042 | -0.011 ± 0.014 | -0.021 ± 0.0071 | -0.036 | 0.0125 ± 0.077
3C:CD54/ICAM-1 | 0.002 ± 0.0014 | 0 ± 0.0099 | 0 ± 0.018 | -0.009 ± 0.0014 | -0.01 ± 0.0071 | -0.006 | -0.0055 ± 0.0092 | 0.008 ± 0.013 | -0.0005 ± 0.0092 | -0.019 ± 0.0085 | -0.0135 ± 0.0035 | -0.002 ± 0.014 | -0.008 ± 0.0042 | 0.005 ± 0.0099 | -0.0005 ± 0.0064 | 0.0095 ± 0.0021 | 0.0035 ± 0.0035 | -0.0105 ± 0.016 | 0.008 ± 0.014
HDF3CGF:Collagen I | -0.0065 ± 0.05 | 0.0415 ± 0.005 | 0.0675 ± 0.05 | 0.0115 ± 0.067 | 0.034 ± 0.092 | -0.0315 ± 0.1 | 0.009 ± 0.096 | 0.015 ± 0.052 | -0.011 ± 0.068 | -0.0135 ± 0.053 | 0.0405 ± 0.015 | 0.0085 ± 0.015 | 0.0185 ± 0.015 | 0.0555 ± 0.067 | 0.043 ± 0.054 | 0.0595 ± 0.016 | 0.039 ± 0.075 | 0.0205 ± 0.033 | 0.055 ± 0.047
HDF3CGF:TIMP-1 | -0.026 ± 0.05 | -0.029 ± 0.0057 | -0.015 ± 0.038 | -0.035 ± 0.0071 | -0.0345 ± 0.0078 | -0.04 ± 0.0042 | 0.008 ± 0.0071 | 0.0385 ± 0.0021 | -0.037 ± 0.0099 | -0.009 ± 0.0028 | 0.041 ± 0.051 | 0.0145 ± 0.016 | 0.049 ± 0.021 | 0.094 ± 0.038 | 0.014 ± 0.016 | 0.008 ± 0.017 | -0.0265 ± 0.0092 | -0.01 ± 0.018 | 0.0045 ± 0.032
MyoF:bFGF | 0.003 | -0.0055 ± 0.0021 | 0.012 ± 0.024 | -0.0015 ± 0.005 | 0.002 ± 0.0014 | -0.0025 ± 0.021 | 0.0015 ± 0.012 | -0.0055 ± 0.018 | 0.0075 ± 0.021 | 0.001 ± 0.0099 | 0 ± 0.018 | 0.0035 ± 0.005 | 0.005 ± 0.0085 | 0.004 ± 0.014 | 0.001 ± 0.0099 | 0.012 ± 0.02 | -0.002 ± 0.0042 | 0.0105 ± 0.012 | -0.0005 ± 0.029
MyoF:Collagen I | -0.0195 ± 0.018 | -0.03 | -0.0145 ± 0.011 | -0.0325 ± 0.037 | -0.037 ± 0.02 | 0.0035 ± 0.0021 | 0.0025 ± 0.0035 | -0.0365 ± 0.0092 | 0.0015 ± 0.015 | -0.005 ± 0.0099 | 0.002 ± 0.011 | -0.0035 ± 0.023 | 0.008 ± 0.025 | 0.019 ± 0.028 | -0.0145 ± 0.016 | -0.005 ± 0.0028 | 0.012 ± 0.0057 | 0.006 ± 0.0028 | 0.01 ± 0.0028
